Results on three compounds are retold here after US20030073744A1, “Agent for enhancing cerebral acetylcholine release” (priority 1999, published 2003).

Broadly, the LD50 is the dose expected to kill half of the subjects tested. Low values mean a more toxic substance, high ones a less toxic substance.

Each structure is given as a SMILES string.

The test system of one data set is aged Wistar rats. The data set is described as follows: Test of the ameliorating effect of impaired circadian rhythm (food-motivated anticipatory activity). The note with it: 30 and 100 mg/kg orally once daily for 7 consecutive days, FIG. 5. The format is in vivo, rat. As to the method:
Test animals: Male Wistar rats at 9 weeks of age (young group) and around 30 months of age (aged group).
Test method: Animals were individually housed and had free access to food and water. After fasting for 24 hours (Day 0), feeding was restricted to only 1 hour/day from 13:30 for 6 consecutive days. Food was again withheld on Day 7, and food-motivated circadian anticipatory activity was investigated. 1-p-Anisoyl-2-pyrrolidinone at 30 and 100 mg/kg or vehicle was orally administered immediately after the feeding time, once daily for 7 consecutive days. Spontaneous motor activity was measured in each home cage.

In another data set the test system is SHRSP. Nature of the data set: Test of improving effect of disturbed sleep pattern (EEG/EMG, REMS). The note with it: 15 mg/kg orally twice daily over 5 consecutive days, FIG. 7. The format is in vivo, rat. An excerpt:
Test animals: Male SHRSP at 13 weeks of age, which received 1% NaCl solution instead of water over 5 weeks, and Wistar Kyoto rats (WKY) at the same age.
Test method: Animals were anesthetized, and electrodes for electroencephalogram (EEG) and a sensor for brain temperature were implanted into the cerebral cortex and electrodes for electromyogram (EMG) were implanted into the back cervical muscle. All variables were continuously recorded for 7 days, and the behavioral states of rats were classified into wakefulness, REMS, NREMS by analyzing the amplitude and frequency of EEG and EMG waves. 1-p-Anisoyl-2-pyrrolidinone at 15 mg/kg or vehicle was administered orally twice daily (morning and evening) over 5 consecutive days.

The next data set has as its system ACh release. The data set is described as follows: Test of the enhancing effect of ACh release (brain microdialysis in freely moving SHRSP). Type of data set: in vivo, rat. The conditions noted are these: for enhancement of ACh release (percent change over baseline): perfused for 20 minutes through microdialysis probe (10^-7 to 10^-5 M). From the text: Test animals: Male stroke-prone spontaneously hypertensive rats (SHRSP) at 13 weeks of age, which received 1% NaCl solution instead of water for 5 weeks prior to the experiment. Test method: SHRSP were anesthetized and a guide cannula was implanted into the thalamus, dorsal hippocampus and prefrontal cortex. After recovery, a concentric microdialysis probe was inserted into the guide cannula and perfused with normal Ringer solution containing 10^−5 M eserine (SIGMA, St. Louis, USA) at a constant flow rate of 2 μl/min under freely moving condition. […] The dialysates for every 20 minutes were collected and injected into the high-pressure liquid chromatography system to quantify extracellular ACh levels. ACh release was expressed as percent change over the average of three consecutive stable samples collected before drug perfusion.

In data set [1] the test system is rats. The data set is described as follows: Acute toxicity after oral administration to rats (LD50). Type of data set: in vivo, rat. The note with it: both sexes.
Data set [2] relates to rats. The note with it: repeated oral administration over 4 weeks, up to 600 mg/kg.
The nature of data set [3]: Acute toxicity after oral administration to rats (LD50). The format is in vivo, rat. The note with it: rat, in vivo.
[4] abbreviates: dorsal hippocampus of SHRSP, FIG. 2.
The mark [5] stands for this setting: prefrontal cortex of SHRSP, FIG. 3.

On to `COc1ccc(C(=O)N2CCCC2=O)cc1` [1-p-anisoyl-2-pyrrolidinone, 1-p-Anisoyl-2-pyrrolidinone], for which the “impaired food-motivated anticipatory activity” value with aged Wistar rats is on record as “significantly ameliorated”. In addition, the “reduced diurnal REMS” value in the data set on SHRSP is “ameliorated”. Moreover, the “effect on ACh release” value with ACh release (any cerebral regions (thalamus, dorsal hippocampus, prefrontal cortex) of SHRSP) was “not observed”.
For `COc1ccc(C(=O)NCCCC(=O)O)cc1` [N-anisoyl-GABA, N-anisoyl-γ-aminobutyric acid], in the data set with rats [1], the “acute toxicity (LD50 values)” value is given as “more than 5,000 mg/kg”. For the same compound, the “sub-acute toxicity, such as lethality and abnormality in hematological, hematobiochemical and toxipathological tests” value with rats [2] is given as “not observed”. The “enhancement of ACh release (percent change over baseline)” value in the data set with ACh release (setting [4]) is on record as 48%; in the data set with ACh release (setting [5]), 70%; in the data set on ACh release (thalamus of SHRSP, FIG. 1) it was 32%.
As to `COc1ccc(C(=O)O)cc1` [p-anisic acid], the LD50 in data set [3] (female animals) is 2120 mg/kg; in data set [3] (male animals), 1810 mg/kg. For the same compound, the “sub-acute toxicity, such as lethality and abnormality in hematological, hematobiochemical and toxipathological tests” value in the data set with rats [2] was “not observed”. The “enhancement of ACh release (percent change over baseline)” value in the data set on ACh release (setting [4]) turned out to be 51%; in the data set with ACh release (setting [5]), 61%; in the data set with ACh release (thalamus of SHRSP, FIG. 1) it was 22%.
